Test results published in PMC11149917, “Translational and Therapeutic Evaluation of RAS-GTP Inhibition by RMC-6236 in RAS-Driven Cancers” (Cancer Discovery, 2024).
pEC50: −log10 of the molar value. Read-outs that look alike come from different tables or passages of the source.

How the values were obtained:
[1] = tested on: CC3 in colon; assay: IHC whole-slide quantification; type: in vivo, mouse; settings: control 0.318
Description: (§1) All tissues were fixed for up to 24 hours using 10% neutral buffered formalin and then moved to 70% ethanol for long-term storage. FFPE sections (4 µm) were stained on the Biocare intelliPATH automated staining platform using the manufacturer’s recommended settings.
(§2) All tissue sections were incubated with Biocare Peroxidase Blocker (Biocare, cat no. PX968) and Background Punisher (Biocare, cat no. BP974M) to block nonspecific background. MACH4 HRP-polymer Detection System (Biocare, cat no. MRH534) was used to detect rabbit primary antibodies.
(§3) DAB-stained slides were scanned and digitized with a Huron TissueScope LE120 whole-slide scanner at 200× magnification.

[2] = tested on: CC3 in ear skin; assay: IHC whole-slide quantification; type: in vivo, mouse; settings: control 2.2
Description: as §1, §2, §3

[3] = tested on: panel of 78 cancer cell lines; assay: Cell panel 3D methylcellulose CellTiter-Glo proliferation; type: cell-based; settings: Homo sapiens
Description: A panel of 78 cancer cell lines harboring mutant and wild-type RAS was selected for screening at Crown Bioscience (Supplementary Table S2). The panel consisted of cell lines with any substitution at position 12 of KRAS, cell lines with any substitutions at position 61 of NRAS, and cell lines with a BRAF^V600E mutation. […] Cells were incubated for 120 hours prior to measurement of adenosine triphosphate (ATP) levels using the CellTiter-Glo Luminescent Cell Viability Assay (CTG; Promega, G7572), a method of determining the number of metabolically active cells based on quantitation of cellular ATP, according to the manufacturer's instructions. To measure induction of apoptosis, cells were incubated with RMC-6236 for 48 hours prior to measuring cleavage of a proluminescent caspase-3/7 DEVD-aminoluciferin substrate using the CaspaseGlo-3/7 Assay (Promega, G8092) according to the manufacturer’s instructions.

CCn1c(-c2cc(N3CCN(C)CC3)cnc2[C@H](C)OC)c2c3cc(ccc31)-c1csc(n1)C[C@H](NC(=O)[C@H]1C[C@@H]1C)C(=O)N1CCC[C@H](N1)C(=O)OCC(C)(C)C2 [RMC-6236]
CC3 (% positive cells) ([1]; Colon (25 mg/kg ), 8h): 0.0833%
CC3 (% positive cells) ([1]; Colon (25 mg/kg ), 24h): 0.237%
CC3 (% positive cells) ([1]; Colon (25 mg/kg ), 48hr): 0.4%
CC3 (% positive cells) ([1]; Colon (25 mg/kg x 7d), 8h): 0.177%
CC3 (% positive cells) ([1]; Colon (25 mg/kg x 7d), 24h): 0.277%
CC3 (% positive cells) ([1]; Colon (25 mg/kg x 7d), 48hr): 0.143%
CC3 (% positive cells) ([2]; Ear Skin (25 mg/kg x7d), 8h): 2.0%
CC3 (% positive cells) ([2]; Ear Skin (25 mg/kg x7d), 24h): 1.5%
CC3 (% positive cells) ([2]; Ear Skin (25 mg/kg x7d), 48hr): 1.5%
CC3 (% positive cells) ([2]; Ear Skin (25 mg/kg), 8h): 2.4%
CC3 (% positive cells) ([2]; Ear Skin (25 mg/kg), 24h): 1.5%
CC3 (% positive cells) ([2]; Ear Skin (25 mg/kg), 48hr): 1.3%
pEC50 ([3]; A549, A549, KRAS G12S, Lung, read-out: Proliferation Inhibition (EC50)): 7.26
pEC50 ([3]; A-375, A375, BRAF V600E, Skin, read-out: Proliferation Inhibition (EC50)): < 7.00
pEC50 ([3]; A-427, A427, KRAS G12D, Lung, read-out: Proliferation Inhibition (EC50)): 7.01
pEC50 ([3]; AGS, KRAS G12D, Stomach, read-out: Proliferation Inhibition (EC50)): 8.49
pEC50 ([3]; ASH3, NRAS Q61R, Head and Neck/Thyroid, read-out: Proliferation Inhibition (EC50)): 7.04
pEC50 ([3]; ASPC1, ASPC1, KRAS G12D, Pancreas, read-out: Proliferation Inhibition (EC50)): 8.16
pEC50 ([3]; CAL-62, CAL62, KRAS G12R, Head and Neck/Thyroid, read-out: Proliferation Inhibition (EC50)): 7.72
pEC50 ([3]; CAPAN-1, CAPAN1, KRAS G12V, Pancreas, read-out: Proliferation Inhibition (EC50)): 8.34
pEC50 ([3]; CFPAC-1, CFPAC1, KRAS G12V, Pancreas, read-out: Proliferation Inhibition (EC50)): 7.82
pEC50 ([3]; CHP-212, CHP212, NRAS Q61K, Brain and Nerves, read-out: Proliferation Inhibition (EC50)): 7.66
pEC50 ([3]; COLO 201, COLO201, BRAF V600E, Intestine/Large/Colorectum, read-out: Proliferation Inhibition (EC50)): < 7.00
pEC50 ([3]; COR-L23, CORL23, KRAS G12V, Lung, read-out: Proliferation Inhibition (EC50)): 8.07
pEC50 ([3]; Calu-1, CALU1, KRAS G12C, Lung, read-out: Proliferation Inhibition (EC50)): 8.68
pEC50 ([3]; Capan-2, CAPAN2, KRAS G12V, Pancreas, read-out: Proliferation Inhibition (EC50)): 8.24
pEC50 ([3]; CoC1, COC1, KRAS G12D, Ovary, read-out: Proliferation Inhibition (EC50)): 7.24
pEC50 ([3]; HCC15, HCC15, NRAS Q61K, Lung, read-out: Proliferation Inhibition (EC50)): < 7.00
pEC50 ([3]; HCC44, HCC44, KRAS G12C, Lung, read-out: Proliferation Inhibition (EC50)): 8.48
pEC50 ([3]; HEC-1-A, HEC1A, KRAS G12D, Uterus, read-out: Proliferation Inhibition (EC50)): 7.35
pEC50 ([3]; HM7, KRAS G12D, Intestine/Large/Colorectum, read-out: Proliferation Inhibition (EC50)): < 7.00
pEC50 ([3]; HPAC, KRAS G12D, Pancreas, read-out: Proliferation Inhibition (EC50)): 7.13
pEC50 ([3]; HPAF-II, HPAFII, KRAS G12D, Pancreas, read-out: Proliferation Inhibition (EC50)): 8.20
pEC50 ([3]; HT-1080, HT1080, NRAS Q61K, Soft tissue, read-out: Proliferation Inhibition (EC50)): 8.12
pEC50 ([3]; HepG2, HEPG2, NRAS Q61L, Liver, read-out: Proliferation Inhibition (EC50)): 7.64
pEC50 ([3]; HuCCT-1, HUCCT1, KRAS G12D, Liver/Bile duct, read-out: Proliferation Inhibition (EC50)): 7.59
pEC50 ([3]; HuP-T4, HUPT4, KRAS G12V, Pancreas, read-out: Proliferation Inhibition (EC50)): 7.72
pEC50 ([3]; KP4, KRAS G12D, Pancreas, read-out: Proliferation Inhibition (EC50)): 7.51
pEC50 ([3]; KRAS^G12X cells, read-out: median EC50, cell growth inhibition): 8.10
pEC50 ([3]; KYSE-410, KYSE410, KRAS G12C, HN/Esophagus, read-out: Proliferation Inhibition (EC50)): 7.20
pEC50 ([3]; LCLC-97TM1, LCLC97TM1, KRAS G12V, Lung, read-out: Proliferation Inhibition (EC50)): 8.96
pEC50 ([3]; LS174T, KRAS G12D, Intestine/Large/Colorectum, read-out: Proliferation Inhibition (EC50)): < 7.00
pEC50 ([3]; LS180, LS180, KRAS G12D, Intestine/Large/Colorectum, read-out: Proliferation Inhibition (EC50)): 7.06
pEC50 ([3]; LS-123, LS123, KRAS G12S, Intestine/Large/Colorectum, read-out: Proliferation Inhibition (EC50)): 8.42
pEC50 ([3]; LS-513, LS513, KRAS G12D, Intestine/Large/Colorectum, read-out: Proliferation Inhibition (EC50)): 8.15
pEC50 ([3]; MIA PaCa-2, MIAPACA2, KRAS G12C, Pancreas, read-out: Proliferation Inhibition (EC50)): 7.21
pEC50 ([3]; NCI-H23, NCIH23, KRAS G12C, Lung, read-out: Proliferation Inhibition (EC50)): 8.15
pEC50 ([3]; NCI-H358, NCIH358, KRAS G12C, Lung, read-out: Proliferation Inhibition (EC50)): 8.41
pEC50 ([3]; NCI-H441, NCIH441, KRAS G12V, Lung, read-out: Proliferation Inhibition (EC50)): 8.59
